Data on 6 compounds can be found in US20070149406A1, “Plant growth regulation” (Bayer CropScience GmbH, priority 2003, published 2007).

A word on the melting point: it is the temperature, or range, at which the solid turns liquid.

Data set [1] has as its system wheat (Triticum aestivum, variety “TRISO”). Kind of data set: Root growth assay, wheat. To be noted: for Root Growth: wet root weight 16 days post treatment, Root Growth of 100 set as the standard. It counts as in vivo. The source says: (§1) Plant roots are a highly proliferative tissue that allows an easy accessible, cheap and short term screening method for plant growth regulators. The results obtained can easily be transferred to the overall effects on a plant of plant growth regulators identified by such a system. By using this root assay one is enabled to determine the effect of a seed treatment to root growth and/or germination and/or changes in habitat of germinated plants in order to identify the possible use as a yield enhancer. Two seeds of wheat (Triticum aestivum, variety “TRISO”) or 1 seed of maize (Zea mays, variety “LORENZO”) per hole in a plastic tray which contains an architecture of 8×13 holes were placed on compost soil covered with sand. These seeds were treated with 100 μl/ hole, which creates an application volume of approx. 1200 I/ha, of a compound solution at active ingredient rates equivalent to 100, 10 and 1 g a.i./ha of each compound using an robotic application system (Lizzy Spray Robotics). Six replicates in a row of each compound and concentration were done. The outer rim of the above defined plastic tray was untreated to avoid false negative effects and the middle row (No. 7) was used as untreated control. The treated seeds were allowed to dry for approx. 4 hours and subsequently covered with sand and watered. The trays were stored in climate chambers with 14 hours lighting at a temperature of 24° C. (±2) at daytime and 16° C. (±2) at night and relative humidity (rH) of 60% and daily watered. Assessments were done 16 (±2) days post treatment by counting the germinated plants and assessing the phytotoxicity symptoms and percentage. In addition, the roots were washed out and the shoots were cut directly above the seed and the wet roots were placed on dry paper towels for approximately 30 minutes and weighted afterwards. This procedure provides a similar grade of moisture to the roots so that a comparison of the weights is possible. […] The effects observed concerning Root Growth given in column 2 (Root Growth of “100” is set as the standard) are directed to concentrations that are equivalent to 100, 10, 1 g a.i./ha, each.

The test system of data set [2] is maize (Zea mays, variety “LORENZO”). Briefly: Root growth assay, maize. Format: in vivo. To be noted: for Root Growth: wet root weight 16 days post treatment, Root Growth of 100 set as the standard.
Source text: as §1

For data set [3], the system named is maize hybrid Magister and Zamora. Kind of data set: Field trial, seed-treated maize, grain yield. To be noted: seed treatment 1 g/100 kg seeds (0.0003 kg/ha). Format: in vivo. The source says: Maize seeds of maize hybrid Magister and Zamora were seed treated with compound 1.136 at 1 g/100 kg seeds (0.0003 kg/ha). Field trials were set up in a split plot design representing the plants treated with compounds of formula (I) as well as the non-treated control plants.

In the case of `NC(=O)c1nn(-c2c(Cl)cc(C(F)(F)F)cc2Cl)c(N)c1[S+]([O-])C(F)(F)F` (stereo not shown) [Compound 1.136], the “effect as plant growth regulator in wheat (in words)” value in data set [1] is reported as “significant effects of approximately the same size”. Also, the “Root Growth” value in data set [1] (1 g a.i./ha) is 124; in data set [1] (10 g a.i./ha), 75; in data set [1] (100 g a.i./ha), 58; in data set [2] (1 g a.i./ha), 107; in data set [2] (10 g a.i./ha), 131; in data set [2] (100 g a.i./ha), 74. The “effect as plant growth regulator in maize (in words)” value in data set [2] is listed as “significant effects of approximately the same size”. Further, the “increase in grain yield compared to non-treated control plants” value in data set [3] (maize hybrid Magister) is reported as “up to 119%”; in data set [3] (maize hybrid Zamora), “up to 131%”.

Take `CCCCCNC(=O)c1nn(-c2c(Cl)cc(C(F)(F)F)cc2Cl)c(N)c1[S+]([O-])C(F)(F)F` (stereo not shown) [Compound 1.141]: the “effect as plant growth regulator in wheat (in words)” value in data set [1] was “superior effect”. The “Root Growth” value in data set [1] (1 g a.i./ha) amounted to 257; in data set [1] (10 g a.i./ha), 160; in data set [1] (100 g a.i./ha) it was 256; in data set [2] (1 g a.i./ha) it was 111; in data set [2] (10 g a.i./ha), 102; in data set [2] (100 g a.i./ha), 95. The “effect as plant growth regulator in maize (in words)” value in data set [2] is “remarkable effect”.

Regarding `Nc1c([S+]([O-])C(F)(F)F)c(C(=O)NCC2CCCO2)nn1-c1c(Cl)cc(C(F)(F)F)cc1Cl` (stereo not shown) [Compound 1.144], the “Root Growth” value is recorded as 170 in data set [1] (1 g a.i./ha), 115 in data set [1] (10 g a.i./ha) and 110 in data set [1] (100 g a.i./ha).

Consider `CNc1c([S+]([O-])C(F)(F)F)c(C(=O)N(C)C)nn1-c1c(Cl)cc(C(F)(F)F)cc1Cl` (stereo not shown) [Compound 1.228], for which the “Root Growth” value was 72 in data set [2] (1 g a.i./ha), 111 in data set [2] (10 g a.i./ha) and 186 in data set [2] (100 g a.i./ha).

Turning to `Nc1c(SC(F)(F)F)c(C(=O)O)nn1-c1c(Cl)cc(C(F)(F)F)cc1Cl` [Compound 2.10, 5-Amino-1-(2,6-dichloro-4-trifluoromethylphenyl)-4-trifluoromethylthio-1H-pyrazole-3-carboxylic acid], the “Root Growth” value is listed as 158 in data set [1] (1 g a.i./ha), 118 in data set [1] (10 g a.i./ha) and 134 in data set [1] (100 g a.i./ha).

`CCOc1c(SC(F)(F)F)c(C(N)=O)nn1-c1c(Cl)cc(C(F)(F)F)cc1Cl` [Compound 3.3, 1-(2,6-Dichloro-4-trifluoromethylphenyl)-5-ethoxy-4-trifluoromethylthio-1H-pyrazole-3-carboxylic acid amide] had a melting point of 161 °C.
